Data: ChEMBL document CHEMBL1137193, “Discovery of new chemical leads for prostaglandin D2 receptor antagonists” (Bioorg Med Chem Lett, 2004)

Columns and labels:
[1] = biological target: T1, Prostaglandin D2 receptor (Mus musculus, UniProt P70263); assay: Binding affinity for mouse Prostanoid DP receptor
T1 sequence (P70263 whole entry): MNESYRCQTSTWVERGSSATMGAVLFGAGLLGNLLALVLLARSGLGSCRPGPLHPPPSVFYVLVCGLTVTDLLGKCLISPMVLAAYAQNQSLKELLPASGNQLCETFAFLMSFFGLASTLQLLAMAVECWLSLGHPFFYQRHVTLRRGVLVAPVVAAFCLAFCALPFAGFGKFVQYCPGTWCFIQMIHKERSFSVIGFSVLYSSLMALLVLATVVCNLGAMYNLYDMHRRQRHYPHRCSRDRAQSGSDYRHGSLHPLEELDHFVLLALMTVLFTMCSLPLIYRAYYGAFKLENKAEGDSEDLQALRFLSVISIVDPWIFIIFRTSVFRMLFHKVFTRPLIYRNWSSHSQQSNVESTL

[2] = biological target: T2, Prostaglandin E2 receptor EP1 subtype (Mus musculus, UniProt P35375); assay: Binding affinity for mouse Prostanoid EP1 receptor
T2 sequence (P35375 whole entry): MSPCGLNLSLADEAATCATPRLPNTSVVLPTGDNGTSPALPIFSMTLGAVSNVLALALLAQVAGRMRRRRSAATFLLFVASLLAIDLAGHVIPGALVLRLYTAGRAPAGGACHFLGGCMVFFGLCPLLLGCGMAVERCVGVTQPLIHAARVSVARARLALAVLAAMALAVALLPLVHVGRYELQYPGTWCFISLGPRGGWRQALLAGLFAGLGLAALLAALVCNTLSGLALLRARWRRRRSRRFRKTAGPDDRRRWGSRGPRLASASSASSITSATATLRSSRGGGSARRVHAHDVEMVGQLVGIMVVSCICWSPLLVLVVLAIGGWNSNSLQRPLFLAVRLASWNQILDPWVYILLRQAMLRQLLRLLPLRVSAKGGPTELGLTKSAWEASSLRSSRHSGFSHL

[3] = biological target: T3, Prostaglandin E2 receptor EP3 subtype (Mus musculus, UniProt P30557); assay: Binding affinity for mouse Prostanoid EP3 receptor
T3 sequence (P30557 whole entry): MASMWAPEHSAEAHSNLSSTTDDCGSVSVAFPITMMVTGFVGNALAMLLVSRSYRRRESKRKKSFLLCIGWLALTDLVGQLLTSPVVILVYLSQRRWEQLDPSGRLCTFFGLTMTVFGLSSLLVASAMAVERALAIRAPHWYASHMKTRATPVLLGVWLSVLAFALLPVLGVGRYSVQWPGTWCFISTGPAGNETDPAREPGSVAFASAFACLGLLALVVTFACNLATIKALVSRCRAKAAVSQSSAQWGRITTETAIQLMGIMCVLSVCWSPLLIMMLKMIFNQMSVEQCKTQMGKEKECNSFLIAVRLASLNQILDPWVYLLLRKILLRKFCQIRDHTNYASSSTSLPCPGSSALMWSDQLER

[4] = biological target: Prostaglandin E2 receptor EP4 subtype (Mus musculus, UniProt P32240); assay: Binding affinity for mouse Prostanoid EP4 receptor
[5] = biological target: Prostaglandin E2 receptor EP2 subtype (Mus musculus, UniProt Q62053); assay: Binding affinity for mouse Prostanoid EP2 receptor
[6] = biological target: T1, Prostaglandin D2 receptor; assay: Inhibition of mouse Prostanoid DP receptor

Prostaglandin E2 receptor EP2 subtype, sequence (Q62053 whole entry): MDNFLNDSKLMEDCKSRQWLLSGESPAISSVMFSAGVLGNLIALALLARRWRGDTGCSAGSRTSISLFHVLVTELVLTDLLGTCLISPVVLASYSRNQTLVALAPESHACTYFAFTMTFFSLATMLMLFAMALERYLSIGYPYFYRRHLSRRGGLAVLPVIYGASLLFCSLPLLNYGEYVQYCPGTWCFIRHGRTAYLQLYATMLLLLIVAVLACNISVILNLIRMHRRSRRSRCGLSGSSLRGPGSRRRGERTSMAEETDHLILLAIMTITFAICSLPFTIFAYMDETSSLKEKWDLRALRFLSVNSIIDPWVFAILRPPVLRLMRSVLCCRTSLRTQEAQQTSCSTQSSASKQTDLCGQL
Prostaglandin E2 receptor EP4 subtype, sequence (P32240 whole entry): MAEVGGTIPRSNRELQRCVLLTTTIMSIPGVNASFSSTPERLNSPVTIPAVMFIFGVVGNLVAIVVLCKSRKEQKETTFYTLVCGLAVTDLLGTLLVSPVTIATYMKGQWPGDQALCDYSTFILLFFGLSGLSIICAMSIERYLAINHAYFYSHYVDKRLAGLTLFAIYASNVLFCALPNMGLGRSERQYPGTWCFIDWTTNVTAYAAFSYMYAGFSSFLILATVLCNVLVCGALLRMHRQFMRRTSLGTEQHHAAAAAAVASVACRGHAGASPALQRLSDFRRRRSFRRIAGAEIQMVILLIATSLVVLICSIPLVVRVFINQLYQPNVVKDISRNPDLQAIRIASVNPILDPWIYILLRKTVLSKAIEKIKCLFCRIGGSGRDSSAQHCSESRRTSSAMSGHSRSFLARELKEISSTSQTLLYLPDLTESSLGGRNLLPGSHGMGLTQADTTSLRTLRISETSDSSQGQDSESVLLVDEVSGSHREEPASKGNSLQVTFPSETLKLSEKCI

Row | Ki [1] [µM] | Ki [2] [µM] | Ki [3] [µM] | Ki [4] [µM] | Ki [5] [µM] | IC50 [6] [µM] | Compound
1 | 1.5 | 3.8 | > 10 | > 10 | 2.9 |  | CCCCOc1ccc(C(=O)n2c(CC)c(CC(=O)O)c3cc(OC)ccc32)cc1
2 | 0.41 | > 10 | > 10 | > 10 | 1.7 | 2.5 | CCCCOc1cccc(C(=O)n2c(C)c(CC(=O)O)c3cc(OC)ccc32)c1
3 | 0.94 | > 10 | > 10 | > 10 | > 10 | 4 | CCCCOc1ccc(C(=O)n2c(C)c(C(=O)O)c3cc(OC)ccc32)cc1
4 | > 10 | 6.5 | > 10 | > 10 | > 10 |  | CCCCOc1ccccc1C(=O)n1c(C)c(CC(=O)O)c2cc(OC)ccc21
5 | 2.2 | > 10 | > 10 | > 10 | 8.9 |  | CCCCOc1ccc(C(=O)n2cc(CC(=O)O)c3cc(OC)ccc32)cc1
6 | 0.15 | 5 | > 10 | 2.2 | 1.7 | 2.9 | CCCCOc1ccc(C(=O)n2c(C)c(CC(=O)O)c3cc(C)ccc32)cc1
7 | 0.19 | > 10 | 2.4 | 1.5 | 2.7 | 0.91 | CCCCOc1ccc(C(=O)n2c(C)c(CCCC(=O)O)c3cc(OC)ccc32)cc1
8 | 0.4 | > 10 | > 10 | 4.2 | 5.2 | 4.5 | CCCCOc1ccc(C(=O)n2c(C)c(CCCCC(=O)O)c3cc(OC)ccc32)cc1
9 | 0.11 | 5.2 | > 10 | > 10 | 2.1 | 3.9 | CCCCOc1ccc(C(=O)n2c(C)c(CC(=O)O)c3ccccc32)cc1
10 | > 10 | > 10 | > 10 | > 10 | > 10 | > 10 | COc1ccc2c(c1)c(CC(=O)O)c(C)n2C(=O)c1ccc(Cl)cc1 [INDOMETHACIN]
11 | 1.9 | > 10 | > 10 | > 10 | 3.3 | > 10 | CCCCOc1ccc(C(=O)n2c(C)c(CC(=O)O)c3cc(O)ccc32)cc1
12 | 0.28 | > 10 | > 10 | 3 | 5.7 | 1.5 | CCCCOc1ccc(C(=O)n2c(C)c(CCC(=O)O)c3cc(OC)ccc32)cc1
13 | 0.27 | > 10 | > 10 | > 10 | 4.7 | 1.6 | CCCCOc1ccc(C(=O)n2c(C)c(CC(=O)O)c3cc(OC)ccc32)cc1
